Each structure is given as a SMILES string.

Take `CC(C)[C@H]1CN(C(C)c2ccc(Cl)cc2)CCN1C(=O)CC1CCN(C(N)=O)CC1` (stereo partly drawn) [Example 101]: the melting point was in the range of 76 to 82 °C. Under `CC(=O)N1CCC(CC(=O)N2CCN(Cc3ccc(Cl)c(Cl)c3)C[C@@H]2C(C)(C)C)CC1` [Example 104] stands 49 to 53 °C; under `CC(=O)N1CCC(CC(=O)N2CCN(Cc3ccccc3-c3ccc(Cl)c(Cl)c3)C[C@@H]2C(C)(C)C)CC1` [Example 106], 62.1 to 63.6 °C; under `CC(=O)N1CCC(CC(=O)N2CCN(Cc3ccc(-c4ccc(Cl)c(Cl)c4)cn3)C[C@@H]2C(C)(C)C)CC1` [Example 107], 145.7 to 147 °C. Take `CC(=O)N1CCC(CC(=O)N2CCN(C(CC3CC3)c3ccc(Cl)c(Cl)c3)C[C@@H]2C(C)(C)C)CC1` (stereo partly drawn) [Example 109]: the melting point lay within 61 to 63 °C. Under `CC(=O)N1CCC(CC(=O)N2CCN(C(CC3CC3)c3ccc(Cl)c(Cl)c3)C[C@@H]2C(C)(C)C)CC1` (stereo partly drawn) [Example 110] stands 61 to 65 °C; under `CC(=O)N1CCC(CC(=O)N2CCN(C(CCC(F)(F)F)c3ccc(C(F)(F)F)cc3)C[C@@H]2C(C)(C)C)CC1` (stereo partly drawn) [Example 111], 61 to 63 °C; under `CC(C)(C)[C@H]1CN(Cc2ccc(Cl)c(Cl)c2)CCN1C(=O)CC1CCN(C(N)=O)CC1` [Example 113], 80 to 85 °C.

In the case of `CC(C)(C)[C@H]1CN(Cc2ccccc2-c2ccc(Cl)c(Cl)c2)CCN1C(=O)CC1CCN(C(N)=O)CC1` [Example 114], the melting point lay in the range of 98.8 to 102.4 °C. To `CC(C)(C)[C@H]1CN(Cc2ccc(-c3ccc(Cl)c(Cl)c3)cn2)CCN1C(=O)CC1CCN(C(N)=O)CC1` [Example 115] belongs 95.2 to 98 °C; to `CC(C)(C)[C@H]1CN(C(CC2CC2)c2ccc(Cl)c(Cl)c2)CCN1C(=O)CC1CCN(C(N)=O)CC1` (stereo partly drawn) [Example 116], 91 to 94 °C; to `CC(C)(C)[C@H]1CN(C(CCC(F)(F)F)c2ccc(C(F)(F)F)cc2)CCN1C(=O)CC1CCN(C(N)=O)CC1` (stereo partly drawn) [Example 117], 76 to 80 °C.

The values are drawn from patent US6969718B2, “17-β hydroxysteroid dehydrogenase type 3 inhibitors for the treatment of androgen dependent diseases” (Schering Corporation, priority 2001, dated 2005).
